Among the data in ChEMBL document CHEMBL1149830, “Kadsuracoccinic acids A-C, ring-A seco-lanostane triterpenes from Kadsura coccinea and their effects on embryonic cell division of Xenopus laevis” (J Nat Prod, 2008) are IC50, Activity and inhibition values, retold here.

Each structure is given as a SMILES string.

Test [1] in a line: Induction of cleavage arrest in embryonic cells of stage 8 Xenopus laevis blastulae. The format is functional, cell-based. Particulars: Blastula.
Test [2] can be described thus: Induction of cleavage arrest in embryonic cells of stage 8 Xenopus laevis blastulae at 1 ug/mL. The format is functional, Blastula.
The nature of test [3]: Growth inhibition of embryonic cells of stage 8 Xenopus laevis blastulae at 10 ug/mL. The test is classed as functional. Particulars: Blastula stage.

Broadly, the IC50 is the concentration that inhibits the measured activity by half. A high value points to a need for much substance. `C=C(C)[C@@H]1CC[C@@H]2C(=CC[C@]3(C)/C(=C(/C)CC/C=C(/C)C(=O)O)CC[C@@]23C)[C@@]1(C)CCC(=O)O` [KADSURACOCCINIC ACID A]: in test [1], half-maximal inhibition (IC50) required 0.68 µM. The Activity in test [2] came to 85%.
A word on the inhibition: it is the change of the read-out against control, counted positive when it falls. Read a high inhibition as a response far below the control. In test [1], `O=c1[nH]cc(F)c(=O)[nH]1` [FLUOROURACIL] showed an IC50 of 26.8 µM. In test [3], this molecule registered an inhibition at 10 µg/mL of 47%.
